# Source: US8629241B2, “Alpha helical mimics, their uses and methods for their production” (The University of Queensland, priority 2004, dated 2014)
# Like-named read-outs stand apart in the source and are kept apart here. Where a SMILES comes first, the peptide text is derived from it. Bridges are numbered along the chain shown (N, C = ends). [ ]: non-standard residue; d: D form. hArg = N=C(N)NCCCC[C@H](N)C(=O)O; Flu = fluorescein; βAla = NCCC(=O)O; Mpa = O=C(O)CCS
# Legend:
# [1] = biological target: Bcl-xL (Homo sapiens, UniProt Q07817); conditions: read-out: dissociation constant; cited from earlier work
# Bcl-xL, sequence (Q07817 whole entry, species assumed): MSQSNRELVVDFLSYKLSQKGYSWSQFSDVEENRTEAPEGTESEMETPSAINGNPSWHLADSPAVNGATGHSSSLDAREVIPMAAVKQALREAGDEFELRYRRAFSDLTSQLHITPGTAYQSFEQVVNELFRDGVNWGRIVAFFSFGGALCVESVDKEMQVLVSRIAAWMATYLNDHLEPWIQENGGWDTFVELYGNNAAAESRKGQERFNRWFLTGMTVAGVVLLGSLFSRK
# [2] = biological target: Bcl-2 (Homo sapiens, UniProt P10415); conditions: read-out: dissociation constant; cited from earlier work
# Bcl-2, sequence (P10415 whole entry, species assumed): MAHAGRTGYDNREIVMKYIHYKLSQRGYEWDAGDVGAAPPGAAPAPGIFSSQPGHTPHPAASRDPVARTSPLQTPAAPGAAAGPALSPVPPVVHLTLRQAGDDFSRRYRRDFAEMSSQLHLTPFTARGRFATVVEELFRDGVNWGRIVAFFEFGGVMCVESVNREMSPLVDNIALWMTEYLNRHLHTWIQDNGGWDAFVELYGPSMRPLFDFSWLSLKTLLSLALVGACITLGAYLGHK
# [3] = Serum stability; format: in vitro ADME; conditions: 1 h, 37° C
# Protocol: Standard solutions of Ac—KARAD-NH2 and Ac—(cyclo-1,5)-KARAD-NH2 (1 mg/mL) were prepared in water. 200 μL of each peptide was added to human serum 800 μL and incubated at 37° C. Acetonitrile/water 3:1 (300 μL) was added to aliquots (100 μL) of serum at 5, 15, 30, 45 and 60 minutes to precipitate serum proteins, which were removed by centrifugation. The decanted supernatant was analyzed by LC-MS MS with a 2.1×150 mm Phenomenex 300 Å C18 5 um column, using a 3% per minute linear gradient from 0%-60% acetonitrile over 20 minutes. The amount of starting material left in each sample was quantified by determination of total ion counts for the molecular ion.
# [4] = Stability against denaturants (guanidine.HCl, temperature) followed by CD; format: physicochemical; conditions: 8M guanidinium chloride, 25° C
# Protocol: Proteolytic stability of the helix. trypsin digestion
# The helical macrocycles were conformationally very stable even under protein-denaturing conditions, as illustrated by the low dependence of their CD spectra on temperature between 5-65° C. (FIG. 9a) and on the concentration of guanidine.HCl (FIG. 9b).
# (§1) CD experiments were performed on a Jasco Model J-710 spectropolarimeter which was routinely calibrated with (1S)-(+)-10-camphorsulfonic acid. Temperature control was achieved using a Neslab RTE-111 circulating water bath. Spectra were recorded in a 0.1 cm Jasco cell between 310-185 nm at 50 nm/min with a band width of 1.0 nm, response time of 2 sec, resolution step width of 0.1 nm and sensitivity of 20, 50 or 100 mdeg. Each spectrum represents the average of 5 scans with smoothing to reduce noise. Peptide samples for CD spectroscopy were dissolved in distilled water (˜1 mg/mL). Each stock solution was diluted to a final concentration of 50 μM in 10 mM sodium phosphate buffer (pH7.4), with or without additives (2,2,2-trifluoroethanol (TFE) or guanidine.HCl). Guanidine.HCl denaturation experiments were performed according to Creighton^105.
# [5] = system: trypsin; test: Proteolytic stability of the helix, trypsin digestion (Example 10); format: in vitro ADME; conditions: pH 8.2, room temperature, 1 to 155 minutes
# Protocol: A standard solution of Ac—KARAD-NH2 and Ac—(cyclo-1,5)-KARAD-NH2 (1 mg/mL) was prepared in 100 mM ammonium carbonate buffer at pH˜8.2. To 100 μL of each solution was added 1 mg/mL of trypsin (1 μL). The digest was conducted at room temperature with 5 μL aliquots taken at 1, 4, 8, 28, 48, 55, 110, 155 minutes. Aliquots were diluted with 5 μL of 3% TFA to stop the reaction. and analyzed by LC-MS using 2.1×150 mm Phenomenex 300 Å C18 5 μm column, with a 3% per minute linear gradient of 0-60% acetonitrile over 20 minutes. The amount of starting material left in each sample was quantified by determination of total ion counts for the molecular ion.
# Compound of SEQ ID NO 8 and its acyclic version SEQ ID NO: 14 were incubated with trypsin (pH 8.2), aliquots removed at intervals between 1 and 155 minutes, and analyzed by LCMS. […] Similarly the cyclic compound 8 was not degraded by human serum (1 h, 37° C.). […] This is consistent with other observations that only an extended or linear peptide conformation is recognized, not only by trypsin, but by all proteolytic enzymes^125 Presumably the cycle is too tightly locked into an alpha helical turn to permit significant unwinding to the extended format needed for recognition by trypsin.
# [6] = format: physicochemical; conditions: for θ222/θ208 / [θ]192 / [θ]208 / [θ]222: Table 8; for [θ]192 / [θ]208 / [θ]222: one or more cyclic pentapeptide modules versus linear peptides; for percentage helicities: equation 2b with k˜4, assuming 8 has 100% helicity; for % helicity: fH × 100, [θ∞H]222 = −44000, k = 2.6; for [θ]207: molar elipticity at 207 nm
# Protocol: Circular Dichroism (CD) was performed on peptides having SEQ ID NOs: 8 to 14 and 18 to 31, using methods described above. The molar elipticities at 222 nm, 208 nm and 190 nm, ratios of elipticities at 222 nm/208 nm and relative helicity are shown in Tables 6 and 7.
# Assuming that mean alpha helix content (fH) is linearly related to elipticity at 222 nm, or in our case 215 nm ([θ]obs215), then the equation for calculating helix content is: fH=([θ]obs215−[θ]C)/([θ]∞215−[θ]C) (1) Luo and Baldwin^22 determined that the random coil ([θ]C) and infinite alpha helix ([θ]∞222) molar elipticities are temperature dependent based on the equations: [θ]C=2220−53T (2a) [θ]∞215=(−44000+250T)(1−k/Np) (2b) where T is temperature in degrees Celsius, Np is the number of peptide units, and k is a finite length correction.
# CD was performed on peptides having one [SEQ ID NO: 8] or more than one modular macrocycle [SEQ ID NOs: 46 and 47], as compared with corresponding linear peptides, Ac[KARAD]n—NH2 where n=1 [SEQ ID NO: 14], n=2 [SEQ ID NO: 54] and n=3 [SEQ ID NO: 55]. The molar elipticities at 222 nm, 208 nm and 190 nm, ratios of elipticities at 222 nm/208 nm and percentage helicity are shown in Table 8.
# as §1
# 1D ^1H NMR spectra were then recorded with presaturation and a relaxation delay (d1) of 30 seconds to allow for full relaxation of peptide and DSS^1H signals to facilitate accurate integration of proton signals with S/N>250:1. This method provides reproducible concentrations within ±2%.
# CD data in ellipticity was converted to mean peptide ellipticity using the equation: [θ]=θ/(10×C×Np×1) where θ is the ellipticity in millidegrees, C is the peptide molar concentration (M), 1 is the cell path length (cm), and Np is the number of peptide units (ie. pentapeptides […], 10 & 11 Np=5, 12 Np=4.)
# Relative helicities were employed to allow scaling of compounds by dividing the [θ]obs215(8)/[θ]obs215(x) for pentapeptides, and [θ]obs215(24)/[θ]obs215(x) for hexapeptides.
# [7] = system: trypsin; test: in vitro; format: in vitro ADME; conditions: isolated enzyme trypsin, pH 8
# Protocol: Solutions of SEQ ID NO: 46 (25 μM) and linear peptide SEQ ID NO: 54 (26 μM) were incubated with trypsin (1 μg/mL) in 25 mM ammonium carbonate buffer (pH=8) at room temperature. Aliquots were taken at 30 seconds, 1 minute, 5 minutes, 15 minutes, 30 minutes, 1 hour and 2 hours, and diluted with an equivalent volume of 3% trifluoroacetic acid. The resultant solutions were analyzed using a 2×75 mm, 3 μm, Aqua C-18 column (Phenomenex) equilibrated in aqueous formic acid (0.1%). Peptide cleavage products were eluted using a linear gradient of acetonitrile from 0 to 80% in aqueous 0.01% formic acid over 20 minutes at a rate of 300 μL/min. Rate of degradation of either SEQ ID NO: 32 or SEQ ID NO: 43 was quantified by determining extracted ion counts of chromatograms relative to control solutions (containing no enzyme) using a QSTAR PULSAR Electrospray QqTOF Mass Spectrometer and analyzed using BioMultiview (SCIEX Software). Retention time of SEQ ID NO: 46=11.64 minutes. Retention time of linear peptide SEQ ID NO: 54=7.43 minutes. SEQ ID NO: 46 was also found to be highly resistant to proteolytic cleavage by trypsin (97% recovered intact after 2 h), whereas the linear peptide […] (SEQ ID NO: 54) was completely degraded within 30 seconds.
# [8] = biological target: trypsin; conditions: cited from earlier work
# [9] = biological target: thrombin (Homo sapiens, UniProt P00734); conditions: cited from earlier work
# [10] = phase III; patients at risk of abrupt vessel closure after coronary angioplasty; cited from earlier work
# [11] = biological target: MDM2 (Homo sapiens, UniProt Q00987); conditions: cited from earlier work
# MDM2, sequence (Q00987 whole entry): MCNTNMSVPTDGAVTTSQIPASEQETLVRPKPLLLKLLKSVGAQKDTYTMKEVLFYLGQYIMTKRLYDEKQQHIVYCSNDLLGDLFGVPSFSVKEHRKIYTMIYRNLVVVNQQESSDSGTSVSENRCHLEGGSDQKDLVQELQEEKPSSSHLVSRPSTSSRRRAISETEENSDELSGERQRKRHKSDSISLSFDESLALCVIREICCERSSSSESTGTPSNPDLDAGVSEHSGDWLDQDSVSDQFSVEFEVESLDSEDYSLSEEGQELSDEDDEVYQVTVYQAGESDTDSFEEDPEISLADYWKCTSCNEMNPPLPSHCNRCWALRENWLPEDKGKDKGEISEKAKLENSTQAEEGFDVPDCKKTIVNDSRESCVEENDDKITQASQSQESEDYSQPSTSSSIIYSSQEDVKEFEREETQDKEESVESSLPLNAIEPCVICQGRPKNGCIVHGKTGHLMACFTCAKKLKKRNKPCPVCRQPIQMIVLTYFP
# [12] = [θ]215 relative to SEQ ID NO: 8, 10 mM phosphate buffer, pH 7.4, 25° C
# [13] = molar elipticity at 190 nm, 10 mM phosphate buffer, pH 7.4, 25° C
# [14] = 10 mM phosphate buffer, pH 7.4, 25° C
# [15] = molar elipticity at 215 nm, 10 mM phosphate buffer, pH 7.4, 25° C
# [16] = ratio of elipticities, 10 mM phosphate buffer, pH 7.4, 25° C
# [17] = cyclic hexapeptides 23-31, 10 mM phosphate buffer pH 7.4 at 25° C
molecule,measurement,setting,value
Flu-βANLWAAQRYGRELRRMSDKKFVDSFKK-NH2 ({Flu-βAla}-ANLWAAQRYGRELRRMSDKKFVDSFKK-NH2),Kd,[1],0.6 nM
same,Kd,[2],3 nM
"CC(=O)N[C@H]1CCCCNC(=O)C[C@@H](C(N)=O)NC(=O)[C@H](C)NC(=O)[C@H](CCCNC(=N)N)NC(=O)[C@H](C)NC1=O [SEQ ID NO: 8, Ac-(cyclo-1,5)-[KARAD]-NH2] (Ac-KARAD-NH2; lactam 1-5)",degradation by human serum,[3],not degraded
same,alpha helicity (molar elipticity at 215 nm) in denaturant,[4],maintains full alpha helicity
same,"stability to trypsin (starting material left, LCMS)",[5],remained intact
same,molar elipticity at 215 nm in helix stabilizing solvent,[6],does not increase
same,θ222/θ208,[6],0.98
same,[θ]192,[6],52191 degcm^2dmol^−1residue^−1
same,[θ]208,[6],−17039 degcm^2dmol^−1residue^−1
same,[θ]222,[6],−15464 degcm^2dmol^−1residue^−1
same,Relative helicity,[6]; [12],1.00
same,percentage helicities,[6],100%
same,% helicity,[6],79%
same,helicity on variation of the k factor,[6]; k factor from 2.4 to 4.5,56-135%
same,[θ]190,[6]; [13],38300 deg.cm^2.dmol^−1.residue^−1
same,[θ]207,[6]; [14],−12211 deg.cm^2.dmol^−1.residue^−1
same,[θ]215,[6]; [15],−12757 deg.cm^2.dmol^−1.residue^−1
same,θ215/θ207,[6]; [16],1.04
"CC(=O)N[C@H]1CCCCNC(=O)C[C@@H](C(=O)N[C@H]2CCCCNC(=O)C[C@@H](C(N)=O)NC(=O)[C@H](C)NC(=O)[C@H](CCCNC(=N)N)NC(=O)[C@H](C)NC2=O)NC(=O)[C@H](C)NC(=O)[C@H](CCCNC(=N)N)NC(=O)[C@H](C)NC1=O [SEQ ID NO: 46] (Ac-KARADKARAD-NH2; lactam 1-5, 6-10)","remaining at 2 h, 25 μM",[7],97%
same,θ222/θ208,[6],1.29
same,[θ]192,[6],104187 degcm^2dmol^−1residue^−1
same,[θ]208,[6],−24957 degcm^2dmol^−1residue^−1
same,[θ]222,[6],−32340 degcm^2dmol^−1residue^−1
same,% helicity,[6],99%
N=C(N)NCCC[C@@H]1NC(=O)[C@@H]2CCCN2C(=O)[C@@H](NC=O)CNC(=O)/C=C/C(Cc2ccc(O)cc2)NC(=O)[C@@H](Cc2ccccc2)NC(=O)C1=O (stereo partly drawn) [Cyclotheonamide A],Ki,[8],23 nM
same,Ki,[9],180 nM
"CC(=O)N[C@@H](CCCCN)C(=O)N[C@@H](C)C(=O)N[C@@H](CCCNC(=N)N)C(=O)N[C@@H](C)C(=O)N[C@@H](CC(=O)O)C(N)=O [SEQ ID NO: 14, Ac-[KARAD]-NH2] (Ac-KARAD-NH2)","stability to trypsin (starting material left, LCMS)",[5],completely hydrolyzed within a few minutes
same,θ222/θ208,[6],0.12
same,[θ]192,[6],−14779 degcm^2dmol^−1residue^−1
same,[θ]208,[6],−5758 degcm^2dmol^−1residue^−1
same,[θ]222,[6],−732 degcm^2dmol^−1residue^−1
same,Relative helicity,[6]; [12],0.04
same,% helicity,[6],0.8%
same,[θ]190,[6]; [13],−7372 deg.cm^2.dmol^−1.residue^−1
same,[θ]207,[6]; [14],−5555 deg.cm^2.dmol^−1.residue^−1
same,[θ]215,[6]; [15],−524 deg.cm^2.dmol^−1.residue^−1
same,θ215/θ207,[6]; [16],0.09
N=C(N)NCCCC[C@@H]1NC(=O)CCSSC[C@@H](C(N)=O)NC(=O)[C@@H]2CCCN2C(=O)[C@H](Cc2c[nH]c3ccccc23)NC(=O)[C@H](CC(=O)O)NC(=O)CNC1=O [eptifibatide] ([Mpa][hArg]GDWPC-NH2; disulfide 1-7),incidence of cardiac events,[10],reduce the incidence of cardiac events
Acetyl-Phe-Met-Aib-Pmp-6C1W-Glu-Ac3c-Leu-NH2,IC50,[11],5 nM
"Ac-(cyclo-2,6)-R[KAQAD]-NH2 (Ac-RKAQAD-NH2; lactam 2-6; SMILES CC(=O)N[C@@H](CCCNC(=N)N)C(=O)N[C@H]1CCCCNC(=O)C[C@@H](C(N)=O)NC(=O)[C@H](C)NC(=O)[C@H](CCC(N)=O)NC(=O)[C@H](C)NC1=O) [SEQ ID NO: 26]",Molar ellipticity at 207 nm,[6]; [17],−12279 deg.cm^2.dmol^−1.residue^−1
same,[θ]190,[6]; [17],36865 deg.cm^2.dmol^−1.residue^−1
same,[θ]215,[6]; [17],−11394 deg.cm^2.dmol^−1.residue^−1
same,θ215/θ207,[6]; [17],0.93
same,percentage helicities,[6],70%
same,Relative helicity,"[6]; θ215 relative to SEQ ID NO: 24, 10 mM phosphate buffer pH 7.4 at 25° C",0.84
